Converted amounts (≈) assume the structure as drawn. “And” between values parts separate entries of the source, which are not always exact repeats. Identical values can stand only once. Like-named read-outs stand apart in the source and are kept apart here.
Columns and labels:
[1] = test system: Phomopsis capsici (P. capsica); assay: In vitro fungicidal activity, mycelial (hyphae) growth inhibition on PDA; assay type: cell-based
Valsa malicola (V. mali) = assay: as above; assay type: cell-based
[2] = Critical micelle concentration by electrical conductivity; details: 25 °C
Protocol: The critical micelle concentrations (CMCs) of the TISs were measured using electrical conductivity at 25 °C, as shown in Figure S16.
The critical micelle concentrations (CMCs) of all the TISs were determined using an electrical conductivity meter (Leica Desktop Conductivity Meter DDSJ-308F, Shanghai Oustor Industrial Co., Ltd. Shanghai, China).

[3] = Solubility classification in representative solvents (Vogel protocol); assay type: physicochemical; details: thermodynamic from solid, 25 °C
Protocol: This investigation details how to determine the solubility of terbinafine and its salts, guided by the experimental protocol in Vogel’s Textbook of Practical Organic Chemistry. Based on the Snyder polarity index values of the representative solvents, each solvent was tested for its ability to dissolve the target analytes. The solubility data was classified into three categories based on the observed extent of dissolution. […] The experimental procedures were performed at 25 °C and under ambient pressure.

[4] = test system: Pythium aphanidermatum (P. aphanidermatum); assay: In vitro fungicidal activity, mycelial (hyphae) growth inhibition on PDA; assay type: cell-based
[5] = test system: Botrytis cinerea (B. cinerea); assay: as above; assay type: cell-based
[6] = test system: Rhizoctonia solani (R. solani); assay: microbe, parasite or virus in culture; assay type: cell-based
[7] = test system: Alternaria solani (A. solani); assay: In vitro fungicidal activity, mycelial (hyphae) growth inhibition on PDA; assay type: cell-based
[8] = test system: Pyricularia oryzae (P. oryzae); assay: microbe, parasite or virus in culture; assay type: cell-based; details: for EC50: P. oryzae
[9] = test system: Fusarium graminearum (F. graminearum); assay: microbe, parasite or virus in culture; assay type: cell-based
[10] = Surface tension of saturated aqueous solutions, Du Noüy ring method; details: 25 °C
Protocol: This method involved adjusting the stage positioning of the solvent container such that a platinum ring could be immersed below the liquid interface or pulled through the meniscus. […] The maximum force was recorded as the surface tension of the solvent. To ensure accuracy, the platinum ring was thoroughly cleaned between each measurement through rinsing with double-distilled water and wiping it dry. The surface tension determination was performed in quadruplicate.

[11] = Solubility of saturated solutions by HPLC at 25 °C; assay type: physicochemical
Source text: The filtrate was then passed through a 0.22 μm nylon membrane filter and subjected to HPLC analysis. Based on Wang’s report about the chromatographic parameters, modifications to the mobile phase ratio were made. The replicability of the results was ensured by performing each measurement in triplicate.

[12] = test system: B. cinerea on cherry tomatoes; assay: In vivo antifungal bioassay on cherry tomatoes; set-up: species or system Botrytis cinerea; details: 20 mg/L
[13] = DMSO, organic solvent or mixture, test amount 0.1 g, Snyder polarity index 6.5, read-out: Solubility in DMSO
[14] = acetone, organic solvent or mixture, test amount 0.1 g, Snyder polarity index 5.1, read-out: Solubility in Acetone
[15] = acetonitrile, organic solvent or mixture, test amount 0.1 g, Snyder polarity index 6.2, read-out: Solubility in Acetonitrile
[16] = chloroform, organic solvent or mixture, test amount 0.1 g, Snyder polarity index 4.1, read-out: Solubility in Chloroform
[17] = ethyl acetate, organic solvent or mixture, test amount 0.1 g, Snyder polarity index 4.3, read-out: Solubility in Ethyl acetate
[18] = isopropanol, organic solvent or mixture, test amount 0.1 g, read-out: Solubility in Isopropanol
[19] = methanol, organic solvent or mixture, test amount 0.1 g, Snyder polarity index 6.6, read-out: Solubility in Methanol
[20] = n-hexane, organic solvent or mixture, test amount 0.1 g, Snyder polarity index 0.0, read-out: Solubility in n-Hexane
[21] = toluene, organic solvent or mixture, test amount 0.1 g, Snyder polarity index 2.3, read-out: Solubility in Toluene
[22] = water, test amount 0.1 g, Snyder polarity index 9.0, read-out: Solubility in Water
[23] = 50 mg/L, mean ± SD of three replicates
[24] = Fusarium graminearum, F. graminearum

## CN(C/C=C/C#CC(C)(C)C)Cc1cccc2ccccc12.O=C(O)/C=C/C(=O)O [TIS 4, (E)-N,6,6-trimethyl-N-(naphthalen-1-ylmethyl)hept-2-en-4-yn-1-aminium (E)-3-carboxyacrylate]
[1]
  Inhibition Rate at 50 mg/L (%) P. c: 47.64 ± 1.58%
Valsa malicola (V. mali)
  EC50: 1.88 mg/L
Valsa malicola (V. mali); 50 mg/L
  Inhibition Rate at 50 mg/L (%) V. m: 100 ± 0%
Valsa malicola (V. mali); read-out: EC50 (μmol/L)
  EC50: 4.6 µmol/L
[2]
  critical micelle concentration (CMC): 0.31 mmol/L
[3]; [13]
  solubility: > 100 mg/mL
[3]; [14]
  solubility: < 33.3 mg/mL
[3]; [15]
  solubility: < 33.3 mg/mL
[3]; [16]
  solubility: < 33.3 mg/mL
[3]; [17]
  solubility: < 33.3 mg/mL
[3]; [18]
  solubility: < 33.3 mg/mL
[3]; [19]
  solubility: < 33.3 mg/mL
[3]; [20]
  solubility: < 33.3 mg/mL
[3]; [21]
  solubility: < 33.3 mg/mL
[3]; [22]
  solubility: < 33.3 mg/mL
[4]
  Inhibition Rate at 50 mg/L (%) P. a: 65.23 ± 0.47%
[5]; 50 mg/L
  Inhibition Rate at 50 mg/L (%) B. c: 100 ± 0%
[5]; Botrytis cinerea
  EC50: 0.15 mg/L
[5]; read-out: EC50 (μmol/L)
  EC50: 0.36 µmol/L
[6]; 50 mg/L
  Inhibition Rate at 50 mg/L (%) R. s: 85.82 ± 1.51%
[6]; Rhizoctonia solani
  EC50: 2.3 µg/mL
[6]; read-out: EC50 (μmol/L)
  EC50: 5.65 µmol/L
[7]; 50 mg/L
  Inhibition Rate at 50 mg/L (%) A. s: 100 ± 0%
[7]; Alternaria solani
  EC50: 0.11 mg/L
[7]; read-out: EC50 (μmol/L)
  EC50: 0.28 µmol/L
[8]; [23]
  Inhibition Rate at 50 mg/L (%) P. o: 98.7 ± 0.54%
[8]; Pyricularia oryzae
  EC50: 0.75 µg/mL
[8]; read-out: EC50 (μmol/L)
  EC50: 1.84 µmol/L
[9]; [23]
  Inhibition Rate at 50 mg/L (%) F. g: 100 ± 0%
[9]; F. graminearum, from EC50
  higher bioactivity compared to terbinafine: 16%
[9]; [24]
  EC50: 0.09 µg/mL
[9]; read-out: EC50 (μmol/L), F. graminearum
  EC50: 0.21 µmol/L
[10]
  surface tension of the saturated aqueous solution: 55.68 mN·m^−1
[11]; acetone, organic solvent or mixture, thermodynamic from solid, Table S1, read-out: Solubility, Acetone
  solubility at 15 min: 2070 µM
[11]; acetonitrile, organic solvent or mixture, thermodynamic from solid, Table S1, read-out: Solubility, Acetonitrile
  solubility at 15 min: 301 µM
[11]; chloroform, organic solvent or mixture, thermodynamic from solid, Table S1, read-out: Solubility, Chloroform
  solubility at 15 min: 321 µM
[11]; ethyl acetate, organic solvent or mixture, thermodynamic from solid, Table S1, read-out: Solubility, Ethyl acetate
  solubility at 15 min: 880 µM
[11]; isopropanol, organic solvent or mixture, thermodynamic from solid, Table S1, read-out: Solubility, Isopropanol
  solubility at 15 min: 1920 µM
[11]; methanol, organic solvent or mixture, thermodynamic from solid, Table S1, read-out: Solubility, Methanol
  solubility at 15 min: 7750 µM
[11]; n-hexane, organic solvent or mixture, thermodynamic from solid, Table S1, read-out: Solubility, n-Hexane
  solubility at 15 min: 70.9 µM
[11]; toluene, organic solvent or mixture, thermodynamic from solid, Table S1, read-out: Solubility, Toluene
  solubility at 15 min: 0.261 µM
[11]; water, read-out: water solubility
  solubility at 15 min: 1920 µM
[11]; water, thermodynamic from solid, Table S1, read-out: Solubility, Water
  solubility at 15 min: 1920 µM

## CN(C/C=C/C#CC(C)(C)C)Cc1cccc2ccccc12 [Terbinafine]
[1]; Diaporthe capsici, 50 mg/L, mean ± SD of three replicates, read-out: Inhibition Rate at 50 mg/L (%) P. c
  inhibition at 50 µg/mL: 48.75 ± 0.45%
Valsa malicola (V. mali); Cytospora schulzeri, 50 mg/L, mean ± SD of three replicates, read-out: Inhibition Rate at 50 mg/L (%) V. m
  inhibition at 50 µg/mL: 100%
Valsa malicola (V. mali); V. mali, read-out: EC50 (mg/L)
  EC50: 1.25 mg/L
Valsa malicola (V. mali); V. mali, read-out: EC50 (μmol/L)
  EC50: 4.28 µmol/L
[3]; [13]
  solubility: > 100 mg/mL
[3]; [14]
  solubility: > 100 mg/mL
[3]; [15]
  solubility: > 100 mg/mL
[3]; [16]
  solubility: > 100 mg/mL
[3]; [17]
  solubility: > 100 mg/mL
[3]; [18]
  solubility: > 100 mg/mL
[3]; [19]
  solubility: > 100 mg/mL
[3]; [20]
  solubility: > 100 mg/mL
[3]; [21]
  solubility: > 100 mg/mL
[3]; various polar solvents, organic solvent or mixture, read-out: solubility in various polar solvents
  solubility: 100 mg/mL (≈ 343 mM)
[3]; [22]
  solubility: < 33.3 mg/mL
[4]; Pythium aphanidermatum, 50 mg/L, mean ± SD of three replicates, read-out: Inhibition Rate at 50 mg/L (%) P. a
  inhibition at 50 µg/mL: 68.2 ± 1.87%
[5]; Botrytis cinerea, 50 mg/L, mean ± SD of three replicates, read-out: Inhibition Rate at 50 mg/L (%) B. c
  inhibition at 50 µg/mL: 100%
[5]; Botrytis cinerea, B. cinerea, read-out: EC50 (mg/L)
  EC50: 0.1 mg/L
[5]; Botrytis cinerea, B. cinerea, read-out: EC50 (μmol/L)
  EC50: 0.34 µmol/L
[6]; Rhizoctonia solani
  EC50: 1.73 µg/mL and 5.94 µM
[6]; Rhizoctonia solani, 50 mg/L, read-out: Inhibition Rate at 50 mg/L (%) R. s
  inhibition at 50 µg/mL: 84.21 ± 0.53%
[7]; Alternaria solani, 50 mg/L, mean ± SD of three replicates, read-out: Inhibition Rate at 50 mg/L (%) A. s
  inhibition at 50 µg/mL: 100%
[7]; Alternaria solani, A. solani, read-out: EC50 (mg/L)
  EC50: 0.07 mg/L
[7]; Alternaria solani, A. solani, read-out: EC50 (μmol/L)
  EC50: 0.25 µmol/L
[12]; 4 days after treatment
  Diameter of infection (cm) 4 days: 0.89 cm
[12]; 7 days after treatment
  Diameter of infection (cm) 7 days: 1.07 cm
[8]; Pyricularia oryzae
  EC50: 0.28 µg/mL and 950 nM
[8]; Pyricularia oryzae, read-out: Inhibition Rate at 50 mg/L (%) P. o, 50 mg/L, mean ± SD of three replicates
  inhibition at 50 µg/mL: 99.64 ± 0.36%
[9]; [24]
  EC50: 0.07 µg/mL and 250 nM
[9]; Fusarium graminearum, read-out: Inhibition Rate at 50 mg/L (%) F. g
  inhibition at 50 µg/mL: 100%
[10]
  surface tension of the saturated aqueous solution: 59.92 mN·m^−1
[11]; water, thermodynamic from solid, read-out: water solubility
  solubility at 15 min: 5.22 µM (≈ 1.52 µg/mL)

Reference: paper PMC10303384, “The Effect of Terbinafine and Its Ionic Salts on Certain Fungal Plant Pathogens” (Molecules, 2023)
